Read-outs that look alike come from different tables or passages of the source.
What was measured:
[1] = system: Rabbit Isolated Parietal Cells; assay: Inhibition of 14C-aminopyrine accumulation in stimulated rabbit isolated parietal cells; format: cell-based; details: Oryctolagus cuniculus, 37° C.
Source text: Pharmacology of the Ethanesulfonamide Compounds - Rabbit Isolated Parietal Cells
Parietal cells were isolated from the fundic mucosa of rabbit stomachs by a four-stage collagenase digestion Process. The supernatant fraction from the last two stages of this Process contained the individual parietal cells. This cell suspension was centrifuged and reconstituted in a modified Hank's buffer to contain 2-3×10^6 cells/ml. […] The accumulation is stimulated by histamine and is blocked by H2 antagonists. Accumulation of ^14 C-AP is also stimulated by dibutyryl cAMP (dbcAMP). The cells were incubated with 0.5×10^6 cpm ^14 C-AP, with various concentrations of histamine or dbcAMP, […] isobutylmethylxanthine, and test compound added in a 20 μl volume of buffer or dimethylsulfoxide. The flasks were incubated in a shaking water bath at 37° C. Two 0.5 ml aliquots were then taken from each flask and cell pellets were collected by centrifugation. The pellets were solubilized with Protosol (NEN) and radioactivity determined by liquid scintillation spectrometry.
The concentration of compound required to inhibit ^14 C-AP accumulation in the stimulated parietal cell by 50% (IC50) was determined.

Gastric Secretion = assay: Inhibition of Gastric Secretion in Rat (pylorus ligated); format: in vivo, rat (male Charles River); details: intraduodenal, four hours after pylorus ligation
Method: Inhibition of Gastric Secretion in Rat
Male Charles River rats weighing 150-300 grams were deprived of food but not water for 18-24 hours prior to use. Water was withheld during the experiment. The rats were weighed, anesthetized with ether and the pylorus ligated according to the method of Shay, H. et al., Gastroenterol. 26, 906 (1954). Test compounds were suspended in a 0.5% aqueous solution of methylcellulose (15 cps) and administered intraduodenally (i.d.) at the time of ligation. The rats were housed two per cage and sacrificed with CO2 four hours after ligation. The stomachs were removed and contents emptied into a graduated centrifuge tube. The tubes were centrifuged, the volume of gastric juice recorded, and any samples obviously contaminated by feces, food or blood eliminated. A 1 ml aliquot of gastric juice was titrated with 0.1 N NaOH to a pH of 7.0-7.4.
The volume of gastric juice secreted, the acid concentration, and the product of the volume times the concentration, i.e., the total amount of acid secreted, were statistically compared by a student's t-test using the pooled error variance.

bone protein = assay: In vivo [3H]Proline incorporation into bone protein, bone mitogen activity in the aged Fisher 344 rat; set-up: species or system rat (female Fisher 344); details: daily intraperitoneal, sesame oil
Method: (§1) Pharmacology of the Ethenesulfonyl Fluoride Compounds--[…] Bone Mitogen Activity in the Aged Fisher 344 Rat
(§2) Animals: Female Fisher 344 rats, 12 months of age, were housed in climate controlled light/dark (12-hour cycle) rooms and given food and water ad libitum.
(§3) Test Compounds: The test compounds were suspended in sesame oil and administered daily via intraperitoneal injections; vehicle treated rats were administered sesame oil along (2 mL/kg).
In vivo [^3 H]Proline Incorporation: [^3 H]Proline incorporation into bone protein was carried out as previously described (Reddi and Huggins, 1975). [^3 H]Proline was injected intraperitoneally at a dose of 0.5 μCi/g body weight in 0.9% NaCl. Four hours after the injection, rats were bled by cardiac puncture and then killed by CO2 asphyxiation and the tibia removed and the radioactivity quantified as in Example 28.

tibia = assay: In vivo [3H]Tetracycline incorporation into tibia, bone mitogen activity in the aged Fisher 344 rat; set-up: species or system rat (female Fisher 344); details: daily intraperitoneal, sesame oil
Method: as §1, §2, §3
In vivo [^3 H]Tetracycline Incorporation: Tritiated tetracycline, which is rapidly concentrated in the growing skeleton, can be used as a relative measure of bone forming surface in vivo. [^3 H]Tetracycline was injected intraperitoneally at a dose of 0.125 μCi/g body weight in a 0.9% NaCl solution. Two hours after injection, rats were bled by cardiac puncture and then killed by CO2 asphyxiation and the tibia removed and cleaned of tissue and marrow. The tibia are homogenized and digested in 2 N NaOH for 2 hours. The precipitate is washed and then hydrolyzed in 6N Hcl. An aliquot of the resulting supernatant is analyzed for tritiutum.

[2] = system: Mouse osteoblastic-line cells (MC3T3-El); assay: Mouse Osteoblast-line Cell Proliferation (3H-thymidine); format: cell-based; details: 0.1% FBS
Method: Pharmacology of the Ethenesulfonyl Fluoride Compounds--In Vitro Mouse Osteoblast-line Cell Proliferation
Reagents: Mouse osteoblastic-line cells (MC3T3-El) were plated in Dulbeccos Modified Eagles Medium (DMEM) with 25 mM Hepes Buffer, L-Glutamine, D-Glucose(4.5 gm/1) supplemented with 10% fetal bovine sera, Penicillin (100 units/ml) and Streptomycin ([…]) (Penicillin-Streptomycin liquid) and sodium pyruvate (10 μM final concentration). ^3 H-Thymidine (6.7 Ci/mmole) was diluted in DMEM media without FBS and filter sterilized. An aliquot of this solution was delivered to each culture well to a final concentration of ^3 H-thymidine of 0.4 μCi per well (2 μCi/ml).
Test Preparations: Solutions of the test compound were made on the day before incubation. These compounds were solubilized in either ethanol or DMSO at a concentration of 100 mM containing 0.1% FBS. The solutions were filter sterilized and then sterile serial dilutions were performed with DMEM media containing 0.1% FBS.
Osteoblast line cells were plated into 96 well culture plates, 1600 cells in 100 μL per well in DMEM with 25 mM Hepes Buffer, L-Glutamine, D-Glucose (4.5 gm/L) supplemented with 10% fetal bovine sera, Penicillin (100 units/mL) and Streptomycin (100 μg/mL) and sodium Pyruvate (10 μM final concentration). The media was replaced with DMEM containing no FBS and the cells were then incubated for an additional 24 hours. The following day, test compounds were added and screened at concentrations ranging from 10^-10 to 10^-5 M in the Presence of 0.1% FBS. The cells were then incubated an additional 20 hours. At this time 0.4 μ/Ci of 3H-thymidine was added to each culture well and the cells were incubated an additional 4 hours. The cells were then harvested with a Skatron Cell Harvester onto a glass fiber filter and washed with water, %5 trichloroacetic acid (TCA) and then 95% ethanol. The filters were then processed and counted on the LKB beta plate scintillation counter.

[3] = cited from earlier work
osteoblasts = details: Farley, et al., Science, 1983; cited from earlier work
[4] = 14C-AP accumulation stimulated by dibutyryl cAMP, read-out: IC50 (dbcAMP)
[5] = 14C-AP accumulation stimulated by histamine, read-out: IC50 (H)

O=S(=O)(CCNc1ccc(Cl)c(Cl)c1)NCCCOc1cccc(CN2CCCCC2)c1 [Example 1]
IC50 [1, 4]: 130 nM
IC50 [1, 5]: 370 nM
% Reduction of Total Acid Output (Gastric Secretion; Dose 40 MPK): 47.9%

O=S(=O)(CCNc1ccc(F)cc1)NCCCOc1cccc(CN2CCCCC2)c1 [Example 2, 2-[(4-Fluorophenyl)amino]-N-[3-[3-(piperidinomethyl)phenoxy]propyl]ethanesulfonamide]
IC50 [1, 4]: 1820 nM
IC50 [1, 5]: 920 nM
% Reduction of Total Acid Output (Gastric Secretion; Dose 40 MPK): 22.1%

CCOC(=O)c1ccc(NCCS(=O)(=O)NCCCOc2cccc(CN3CCCCC3)c2)cc1 [Example 3]
IC50 [1, 4]: 2300 nM
IC50 [1, 5]: 390 nM
% Reduction of Total Acid Output (Gastric Secretion; Dose 40 MPK): 25.6%

O=[N+]([O-])c1ccc(NCCS(=O)(=O)NCCCOc2cccc(CN3CCCCC3)c2)cc1 [Example 4, 2-[(4-Nitrophenyl)amino]-N-[3-[3-(piperidinomethyl)phenoxy]propyl]ethanesulfonamide]
IC50 [1, 4]: 3700 nM
IC50 [1, 5]: 120 nM
% Reduction of Total Acid Output (Gastric Secretion; Dose 40 MPK): 30.8%

O=S(=O)(CCNc1ccc(Cl)c(C(F)(F)F)c1)NCCCOc1cccc(CN2CCCCC2)c1 [Example 9, 2-[(4-Chloro-3-trifluoromethylphenyl)amino]-N-[3-[3-(piperidinomethyl)phenoxy]propyl]ethanesulfonamide]
IC50 [1, 4]: 310 nM
IC50 [1, 5]: 160 nM
% Reduction of Total Acid Output (Gastric Secretion; Dose 40 MPK): 24.7%

CCCCc1ccc(NCCS(=O)(=O)NCCCOc2cccc(CN3CCCCC3)c2)cc1 [Example 10, 2-[(4-Butylphenyl)amino]-N-[3-[3-(piperidinomethyl)phenoxy]propyl]ethanesulfonamide]
IC50 [1, 4]: 230 nM
IC50 [1, 5]: 280 nM
% Reduction of Total Acid Output (Gastric Secretion; Dose 20 MPK): 23.3%

CC1CCN(Cc2cccc(OCCCNS(=O)(=O)CCNc3ccc(Cl)c(Cl)c3)c2)CC1 [Example 11, 2-[(3,4-Dichlorophenyl)amino]-N-[3-[3-[(4-methylpiperidin-1-yl)methyl]-phenoxy]propyl]ethanesulfonamide]
IC50 [1, 4]: 460 nM
IC50 [1, 5]: 58 nM
% Reduction of Total Acid Output (Gastric Secretion; Dose 20 MPK): 29.0%

COc1cc(NCCS(=O)(=O)F)c(C(C)=O)cc1OC [Example 14]
Percent Incorporation of [3H]Proline of Control (bone protein; 15 mg/Kg): 100.7 Percent Incorporation of Contr
Percent Incorporation of [3H]Proline of Control (bone protein; 50 mg/Kg): 118.1 Percent Incorporation of Contr
Percent Incorporation of [3H]Proline of Control (bone protein; 150 mg/Kg): 121.0 Percent Incorporation of Contr
Percent Incorporation of [3H]Tetracycline of Control (tibia; 50 mg/Kg): 119.6 Percent Incorporation of Contr
Mouse Osteoblast-line Cell Proliferation [Expressed as a Percent of Control] ([2]; 0.001 μM): 120.9% of Control
Mouse Osteoblast-line Cell Proliferation [Expressed as a Percent of Control] ([2]; 0.01 μM): 159.5% of Control
Mouse Osteoblast-line Cell Proliferation [Expressed as a Percent of Control] ([2]; 0.1 μM): 125.3% of Control
Mouse Osteoblast-line Cell Proliferation [Expressed as a Percent of Control] ([2]; 1.0 μM): 170.3% of Control
Mouse Osteoblast-line Cell Proliferation [Expressed as a Percent of Control] ([2]; 10 μM): 180.3% of Control

O=S(=O)(F)CCNc1ccc(Cl)cc1 [Example 15]
Percent Incorporation of [3H]Tetracycline of Control (tibia; 15 mg/Kg): 118.0 Percent Incorporation of Contr
Percent Incorporation of [3H]Tetracycline of Control (tibia; 25 mg/Kg): 114.0 Percent Incorporation of Contr
Percent Incorporation of [3H]Tetracycline of Control (tibia; 50 mg/Kg): 125.1 Percent Incorporation of Contr
Mouse Osteoblast-line Cell Proliferation [Expressed as a Percent of Control] ([2]; 0.001 μM): 129.6% of Control
Mouse Osteoblast-line Cell Proliferation [Expressed as a Percent of Control] ([2]; 0.01 μM): 119.9% of Control
Mouse Osteoblast-line Cell Proliferation [Expressed as a Percent of Control] ([2]; 0.1 μM): 123.5% of Control
Mouse Osteoblast-line Cell Proliferation [Expressed as a Percent of Control] ([2]; 1.0 μM): 93.4% of Control
Mouse Osteoblast-line Cell Proliferation [Expressed as a Percent of Control] ([2]; 10 μM): 106.7% of Control

[F-].[Na+] [sodium fluoride, Sodium fluoride]
rate of bone fracture ([3]; fluoride treatment, Riggs, et al., N. Engl. J. Med., 1982): significantly decreased
adverse reactions ([3]; in vivo): gastrointestinal side effects (nausea, vomiting, diarrhea and bleeding) and rheumatic complications (synovitis and plantar fascial syndrome)
bone formation and bone mass ([3]; osteoporosis): increases bone formation and leads to an increase in bone mass in osteoporosis
proliferation and activity of bone forming cells, osteoblasts (osteoblasts): causes proliferation and increases the activity of bone forming cells, osteoblasts
